Measured values as given in patent US12569502B2, “Use of bile acids and derivatives thereof in preparation of GPR39 agonist” (PEKING UNIVERSITY, priority 2019, dated 2026).
Where two headings read alike, the source gives them in different places.

Columns and labels:
Format in all cases: cell-based
[1] = target: T1, GPR39 receptors on m39-20 cell lines (Mus musculus, UniProt Q5U431, T447P); experiment: FLIPR calcium imaging on m39-20 cell lines stably expressing murine-derived GPR39; details: for Bile acid + 4 μM zinc ions Efficacy / Only bile acid Efficacy: activation efficacy; for intracellular calcium signals in m39-20 cell lines: FIG. 1; for intracellular calcium signaling response in m39-20 cells: absence of zinc ions; for change of activation efficacy after the addition of zinc ions: Table 1, FIG. 2; for activation capacity on GPR39 receptors among the bile acids: dose curves
T1 construct: P2A-mCherry (C); expressed in transfected cells
T1 sequence (Q5U431 1-456 T447P): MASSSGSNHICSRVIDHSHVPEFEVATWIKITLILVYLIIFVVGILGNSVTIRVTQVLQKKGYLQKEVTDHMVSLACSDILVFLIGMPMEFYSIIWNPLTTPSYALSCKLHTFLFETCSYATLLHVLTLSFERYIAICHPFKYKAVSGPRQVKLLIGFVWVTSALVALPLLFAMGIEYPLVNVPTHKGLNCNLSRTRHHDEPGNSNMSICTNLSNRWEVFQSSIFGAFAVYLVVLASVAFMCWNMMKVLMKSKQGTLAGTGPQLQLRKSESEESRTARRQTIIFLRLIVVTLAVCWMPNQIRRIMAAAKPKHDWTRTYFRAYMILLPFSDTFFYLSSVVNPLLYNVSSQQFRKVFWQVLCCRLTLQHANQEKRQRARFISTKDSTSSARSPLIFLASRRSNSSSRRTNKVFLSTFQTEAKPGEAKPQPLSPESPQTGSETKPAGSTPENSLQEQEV
From the text: Intracellular calcium imaging is a routine technique to study cell functions, the basic principle of which is to detect the concentration of the calcium ion in tissues or cells using a calcium indicator, thereby reflecting certain reactions in the tissues or cells. In the present application, the intracellular calcium released from a cell line that stably or transiently expresses GPR39 is detected using Fluo8-AM, a calcium fluorescent indicator, so as to determine the activation of the GPR39 receptor by the bile acid and derivative thereof.
HEK293T cells (purchased from ATCC) were seeded in a 6-well plate (coming Co.) at an appropriate density (about 0.5-2×10^5/well). When the cell density reached above 30%, the plasmid PLVXK-mGPR39-P2A-mCherry was transfected with Lipofectamine 3000 (Invitrogen) at a concentration of 2 μg per well. The cells were passaged 24 hours after transfection, the puromycin (gibco) was added into the medium at a concentration of 2 μg/mL for antibiotic screening of cells. After 2-4 days of continuous screening, the cells screened for puromycin resistance were trypsinized and screened by flow cytometry for monoclones with red fluorescence. And these monoclones were seeded in a 96-well plate and cultured in a medium without puromycin for around 10 days. Cell colonies with red fluorescence were sorted under a fluorescence microscope, trypsinized and then passaged and expanded in a 6-well plate. Cell lines m39-20 stably expressing murine-derived GPR39 were obtained through the above methods.
Calcium dye Fluo8-AM (ATT bioquest Co.) was dissolved in DMSO solvent to formulate a stock solution of 1 μg/μL. […] After then, the calcium dye working solution was replaced with the 4K solution (50 μL per well), and acclimated for 5 min at room temperature for the subsequent calcium imaging experiment.
Bile acids and derivatives thereof as listed in Table 1 below were dissolved in dimethyl sulfoxide (DMSO, Sigma Co.) solvent to formulate a stock solution of 50 mM, which was stored at −20° C. During calcium imaging with FLIPR, the drug was diluted with the above 4K solution into a working concentration of 400 μM, and packaged into another 96-well plate. […] The instrument parameters were set so that 50 μL of the drug solution may be added into the culture wells within 2 s. The fluorescence recording result within the first 30 seconds was used as the baseline value. The FLIPR robot arm was programmed to automatically add bile acids and derivatives thereof into the cell sample culture wells at the 31st second. 1% of DMSO solvent was used as the blank control.
After that, the calcium dye working solution was replaced with a 4K solution containing 4 μM zinc ions (50 μL per well), followed by acclimation for 5 min at room temperature.

[2] = system: HEK293T cells; experiment: FLIPR calcium imaging on HEK293T cells not expressing GPR39; details: 293T cells not expressing GPR39
Experimental: Bile acids and derivatives thereof as listed in Table 1 below were dissolved in dimethyl sulfoxide (DMSO, Sigma Co.) solvent to formulate a stock solution of 50 mM, which was stored at −20° C. During calcium imaging with FLIPR, the drug was diluted with the above 4K solution into a working concentration of 400 μM, and packaged into another 96-well plate. The drug solution and the cell samples in Example 2.2 were placed into the designated position of the FLIPR instrument (MolecularDevices Co.) respectively. The instrument parameters were set so that 50 μL of the drug solution may be added into the culture wells within 2 s. The fluorescence recording result within the first 30 seconds was used as the baseline value. The FLIPR robot arm was programmed to automatically add bile acids and derivatives thereof into the cell sample culture wells at the 31st second. 1% of DMSO solvent was used as the blank control.
The results of FLIPR calcium imaging experiment of the bile acids and derivatives thereof are shown in FIG. 1, wherein the horizontal coordinate represents the time, and the vertical coordinate represents the relative fluorescence intensity.

[3] = target: T2, human GPR39 receptors on human GPR39-2 cell lines (Homo sapiens, UniProt O43194); experiment: FLIPR calcium imaging on human GPR39-2 cell line stably expressing human GPR39; details: for intracellular calcium signal response of human GPR39-2: FIG. 9; for EC50: human GPR39-2 cells
T2 construct: P2A-mCherry (C)
T2 sequence (O43194 1-453): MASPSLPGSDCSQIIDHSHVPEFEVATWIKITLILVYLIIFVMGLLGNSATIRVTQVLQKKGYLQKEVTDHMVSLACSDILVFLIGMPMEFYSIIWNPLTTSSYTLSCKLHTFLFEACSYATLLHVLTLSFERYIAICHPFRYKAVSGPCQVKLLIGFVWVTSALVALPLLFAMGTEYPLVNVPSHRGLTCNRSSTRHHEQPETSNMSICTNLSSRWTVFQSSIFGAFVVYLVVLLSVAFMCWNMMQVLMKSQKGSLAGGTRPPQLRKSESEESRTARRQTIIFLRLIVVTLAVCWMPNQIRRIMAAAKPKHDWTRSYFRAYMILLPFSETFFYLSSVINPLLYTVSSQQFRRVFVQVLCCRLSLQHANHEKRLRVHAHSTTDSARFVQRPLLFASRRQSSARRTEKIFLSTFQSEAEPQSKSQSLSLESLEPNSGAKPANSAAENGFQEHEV
From the text: The human GPR39 cDNA vector was purchased from WZ Biosciences Inc., Shandong. It was cloned onto a lentiviral vector PLVXK-hGPR39-P2A-mCherry (FIG. 10) through PCR amplification using primers hGPR39-F (which sequence was shown as set forth in SEQshown as set forth in SEQ ID NO: 15) and hGPR39-R (which sequence was shown as set forth in SEQ shown as set forth in SEQ ID NO: 16), in which the sequence of the target gene human GPR39 cDNA was shown as set forth in SEQ shown as set forth in SEQ ID NO: 14. A cell line human GPR39-2 stably expressing human GPR39 gene was constructed according to the method of Example 1.

[4] = Bile acid + 4 μM zinc ions EC50, m39-20 cells, 4 μM zinc ions
[5] = m39-20 cells, no zinc ions, read-out: Only bile acid EC50

Row | Compound | EC50 [1, 4] | Bile acid + 4 μM zinc ions Efficacy ([1]; m39-20 cells, 4 μM zinc ions) | Only bile acid Efficacy ([1]; m39-20 cells, no zinc ions) | activation of GPR39 receptors in the presence of zinc ions ([1]; m39-20 cells, 4 μM zinc ions) | EC50 [1, 5] | calcium signals on HEK293T cells not expressing GPR39 [2] | intracellular calcium signals in m39-20 cell lines [1] | intracellular calcium signaling response in m39-20 cells [1] | change of activation efficacy after the addition of zinc ions ([1]; m39-20 cells) | activation capacity on GPR39 receptors among the bile acids ([1]; m39-20 cells) | intracellular calcium signal response of human GPR39-2 [3] | EC50 ([3]; no added zinc ions, read-out: EC50 Only agonist) | EC50 ([3]; read-out: EC50 Agonist + 4 μM zinc ions, 4 μM zinc ions)
1 | C[C@H](CCC(=O)O)[C@H]1CC[C@H]2[C@@H]3CC[C@@H]4C[C@H](O)CC[C@]4(C)[C@H]3C[C@H](O)[C@]12C [DCA, Deoxycholic acid] | 58.4 ± 10 µM | 93.1 ± 1.4% | 0% | capable of activating GPR39 receptors | > 200 µM | may induce observable calcium signals | – | – | – | – | – | – | –
2 | C[C@H](CCC(=O)O)[C@H]1CC[C@H]2[C@@H]3[C@H](O)C[C@@H]4C[C@H](O)CC[C@]4(C)[C@H]3CC[C@]12C [CDCA, Chenodeoxycholic acid] | 75.1 ± 7.6 µM | 85 ± 5.2% | 0% | capable of activating GPR39 receptors | > 200 µM | may induce observable calcium signals | – | – | – | – | – | – | –
3 | C[C@H](CCC(=O)NCC(=O)O)[C@H]1CC[C@H]2[C@@H]3CC[C@@H]4C[C@H](OS(=O)(=O)O)CC[C@]4(C)[C@H]3CC[C@]12C [GLCAS] | 8 ± 1.8 µM | 110.8 ± 4.1% | 98.8 ± 4.6% | – | 47.9 ± 9.4 µM | – | varying extents of intracellular calcium signals | strong intracellular calcium signaling response | increases slightly | strongest activation capacity | capable of inducing intracellular calcium signal response | – | –
4 | C[C@H](CCC(=O)NCCS(=O)(=O)[O-])[C@H]1CC[C@H]2[C@@H]3CC[C@@H]4C[C@H](OS(=O)(=O)[O-])CC[C@]4(C)[C@H]3CC[C@]12C.[Na+].[Na+] [TLCAS] | – | – | – | – | – | – | varying extents of intracellular calcium signals | strong intracellular calcium signaling response | increases slightly | strongest activation capacity | capable of inducing intracellular calcium signal response | 69.4 ± 5 µM | 9.6 ± 6.3 µM
5 | C[C@H](CCC(=O)O)[C@H]1CC[C@H]2[C@@H]3CC[C@@H]4C[C@H](OS(=O)(=O)O)CC[C@]4(C)[C@H]3C[C@H](O)[C@]12C [DCAS] | 37.8 ± 1 µM | 81.9 ± 2.2% | 0% | – | > 200 µM | – | varying extents of intracellular calcium signals | – | obviously improved | – | – | – | –
6 | C[C@H](CCC(=O)O)[C@H]1CC[C@H]2[C@@H]3CC[C@@H]4C[C@H](O)CC[C@]4(C)[C@H]3CC[C@]12C [LCA, Lithocholic acid] | > 100 µM | 1.3 ± 1.1% | 0% | – | > 200 µM | – | – | – | – | – | – | – | –
7 | C[C@H](CCC(=O)O)[C@H]1CC[C@H]2[C@@H]3[C@@H](O)C[C@@H]4C[C@H](OS(=O)(=O)O)CC[C@]4(C)[C@H]3CC[C@]12C [UDCAS] | 68.6 ± 16.3 µM | 84.7 ± 2.4% | 0% | – | > 200 µM | – | varying extents of intracellular calcium signals | – | obviously improved | – | – | – | –
8 | C[C@H](CCC(=O)NCCS(=O)(=O)O)[C@H]1CC[C@H]2[C@@H]3CC[C@@H]4C[C@H](OS(=O)(=O)O)CC[C@]4(C)[C@H]3C[C@H](O)[C@]12C [TDCAS] | > 100 µM | 60.1 ± 5.5% | 0% | – | > 200 µM | – | varying extents of intracellular calcium signals | – | obviously improved | – | – | – | –
